Measured values from patent publication US20110319339A1, “NEUROTENSIN-DERIVED BRANCHED PEPTIDES AND USES THEREOF” (priority 2008, published 2011).

Key:
[1] = test system: HT29 tumors; assay: Tumor growth reduction in mice; type: in vivo, CD-1 female nude mice; conditions: given six times, dose of 3 μg/kg, time-frame of 10 days
Protocol: In details, CD-1 female nude mice (Charles River Laboratories, Inc.), 5 to 6 weeks of age (mean weight, 20 g), were injected s.c. in the right flank with 1×10^6 HT29 cells. When tumors reached a diameter of 3 to 4 mm (5 days after tumor inoculation) mice were randomly divided into groups (four mice per group) and repeatedly injected in the tail vein (0, 30, 70, 140, 190, 240 hours post first injection) with 500 μL of the following solutions in 0.9% NaCl: (a) 1 mg/mL NT(1-13)4-5FdU (3.05 μmol/kg); (b) 30 μg/mL 5FdU (3.05 μmol/kg); and (c) 0.9% NaCl.
Tumor volumes were measured daily with a caliper using the following formula: volume=length*width2*π/6. 21 days after tumor inoculation, ie 6 days after the last treatment, mice were sacrificed, tumors, removed and weighted. […] Statistical analysis was done using Student's t test (p<0.05).

[2] = test system: PC-3; assay: Cytotoxicity of drug-conjugated NT4, MTT growth inhibition; type: cell-based, human
Protocol: (§1) Cells were grown without changing the medium for days. Growth inhibition was assessed by 3-(4,5-dimethylthiazol-2-yl)-2,5-diphenyltetrazolium bromide. EC50 values were calculated by non-linear regression analysis using GraphPaD prism 3.02 software.

[3] = molecular target: NT receptor
[4] = test system: colon tumors and healthy tissues from the same patient; assay: Binding of fluorophore-conjugated NT4 to human tumor surgical samples versus healthy tissue, confocal fluorescence; conditions: any tissue sample (colon and pancreas)
Protocol: Each step was followed by washing with TBS. […] Each step was followed by washing with TBS. […] Analogue monomeric peptides were assayed for comparison. […] All images were processed using the ImageJ software (NIH).

[5] = Classification of functionalized branched peptides as fast or slow/non releasing; conditions: ability to release the functional unit from the carrier peptide
[6] = test system: HT-29; assay: Cytotoxicity of drug-conjugated NT4, MTT growth inhibition; type: cell-based, human; conditions: HT29, best EC50 values, 0.15 to 30 μmol/L
Protocol: as §1

[7] = test system: HT-29, PANC-1 and PC-3 tumor cell lines; assay: Cytotoxicity of drug-conjugated NT4, statements on the three cell lines together; type: cell-based, human
Protocol: Cells were grown without changing the medium for days.
5-FdU, Monastrol and CBTST were fast released from the adducts. […] The additional washing was performed in order to avoid free drug to diffuse inside the cells during the following six days.

[8] = compared to NT

O=c1[nH]c(=O)n([C@H]2C[C@H](O)[C@@H](CO)O2)cc1F [5-FdU, 5-fluoro-2′-deoxyuridine]
inhibition of tumor growth [1]: 10%
sensitivity of PC-3 cells to the drug [2]: not affected

O=C(O)CCCc1ccc(N(CCCl)CCCl)cc1 [CLB, chlorarnbucil]
sensitivity of PC-3 cells to the drug [2]: not affected

CN(Cc1cnc2nc(N)nc(N)c2n1)c1ccc(C(=O)N[C@@H](CCC(=O)O)C(=O)O)cc1 [MTX, methotrexate]
sensitivity of PC-3 cells to the drug [2]: not affected

NT4-peg-Biotin
IC50 values ([3]; compared to that of NT4): comparable

NT(1-13)4
binding to tissue sample compared to NT(8-13)4 [4]: identical

NT(8-13)4-beta-Ala-Biotin
binding activity to NT receptor ([3]; compared to NT(8-13)4): loose binding activity

NT(8-13)4-betaAla-K(PEG-Chlorambucil) [NT4(8-13)-CLB]
releasing class of the adduct [5]: slow releasing
EC50 [6]: 1900 nM

NT(8-13)-betaAla-K(PEG-5-fluorodeoxyuridine) [NT4(8-13)-5-FdU]
EC50 [6]: 330 nM

NT(8-13)-betaAla-K(PEG-6-mercaptopurine) [NT4(8-13)-6-MP]
activity compared to the parent free drug [7]: no improvement

NT(8-13)-betaAla-K(PEG-Monastrol) [NT4(8-13)-Mon]
activity compared to the parent free drug [7]: no improvement

NT(8-13)-betaAla-K(PEG-Tirapazamine) [NT4(8-13)-TPZ]
releasing class of the adduct [5]: slow releasing
EC50 ([2]; PC3, best EC50 values, 0.15 to 30 μmol/L, MTT): 140 nM

QHWSYGLRPG [LHRH]
in vitro binding profiles [8]: lower
